Data from patent US20240025883A1, “PYRIMIDIN-2-YL SULFONAMIDE DERIVATIVES” (Hoffmann-La Roche Inc., priority 2021, published 2024).

Molecular target: human GPR17 short isoform (Homo sapiens (Human), UniProt Q13304)
Assay: GPR17 cAMP assay (hGPR17 cAMP, antagonist mode against EC80 of MDL29,951)
Format: cell-based
Settings: CHO-K1 cells stably expressing human GPR17 short isoform; EC80 of agonist MDL29,951; forskolin 15 μM
How it was run: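 cAMP was read by competitive TR-FRET after a 30 min room-temperature stimulation: antagonists plus EC80 MDL29,951 and 0.5 mM IBMX, followed 5 min later by 15 μM forskolin. Cells were CHO-K1 with stable human GPR17 short isoform in HBSS/HEPES/BSA, pH 7.4; percent activity versus reference antagonist fitted sigmoidally.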

Chain of human GPR17 short isoform (Q13304 29-367): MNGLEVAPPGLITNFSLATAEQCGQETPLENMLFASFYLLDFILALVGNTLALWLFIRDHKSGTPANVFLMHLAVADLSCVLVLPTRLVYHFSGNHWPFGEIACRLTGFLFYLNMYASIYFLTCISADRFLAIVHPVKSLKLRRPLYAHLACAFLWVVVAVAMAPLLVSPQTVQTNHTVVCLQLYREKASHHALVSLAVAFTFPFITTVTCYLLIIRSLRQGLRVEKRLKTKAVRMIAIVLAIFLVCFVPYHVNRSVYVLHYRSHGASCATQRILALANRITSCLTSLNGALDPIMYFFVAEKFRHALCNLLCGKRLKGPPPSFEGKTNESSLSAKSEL

Q: For `COc1nc(NS(=O)(=O)c2c[nH]c3cc(Cl)ccc23)ncc1COC(F)F` [Example 262, 6-chloro-N-[5-(difluoromethoxymethyl)-4-methoxy-pyrimidin-2-yl]-1H-indole-3-sulfonamide], which IC50 is on record?
A: Its IC50 is 40 nM.

Q: For `COc1nc(NS(=O)(=O)c2c[nH]c3cc(Cl)ccc23)nc(OC)c1OCC1COC1` [Example 263, 6-chloro-N-[4,6-dimethoxy-5-(oxetan-3-ylmethoxy)pyrimidin-2-yl]-1H-indole-3-sulfonamide], which IC50 is on record?
A: The IC50 was 2060 nM.

Q: How did the IC50 turn out when `COc1nc(NS(=O)(=O)c2c[nH]c3cc(Cl)ccc23)nc(OC)c1CC(F)CF` (stereo not drawn) [Example 264, 6-chloro-N-[5-(2,3-difluoropropyl)-4,6-dimethoxy-pyrimidin-2-yl]-1H-indole-3-sulfonamide] was run?
A: Its IC50 is 23 nM.

Q: With `COc1nc(NS(=O)(=O)c2c[nH]c3cc(Cl)ccc23)nc(OC)c1OCC#N` [Example 265, 6-chloro-N-[5-(cyanomethoxy)-4,6-dimethoxy-pyrimidin-2-yl]-1H-indole-3-sulfonamide] as the compound, how does the IC50 read?
A: Its IC50 is 14 nM.

Q: How did the IC50 turn out when `COc1nc(NS(=O)(=O)c2c[nH]c3cc(Cl)ccc23)ncc1CC(F)C(F)F` (stereo not drawn) [Example 266, 6-chloro-N-[4-methoxy-5-(2,3,3-trifluoropropyl)pyrimidin-2-yl]-1H-indole-3-sulfonamide] was run?
A: The IC50 was 90 nM.

Q: With `COc1nc(NS(=O)(=O)c2c[nH]c3cc(Cl)ccc23)ncc1OCC#N` [Example 267, 6-chloro-N-[5-(cyanomethoxy)-4-methoxy-pyrimidin-2-yl]-1H-indole-3-sulfonamide] as the compound, how does the IC50 read?
A: Its IC50 is 49 nM.

Q: How did the IC50 turn out when `COc1nc(NS(=O)(=O)c2csc3cc(Br)ccc23)ncc1OC(F)F` [Example 268, 6-bromo-N-[5-(difluoromethoxy)-4-methoxy-pyrimidin-2-yl]benzothiophene-3-Sulfonamide] was run?
A: The IC50 was 165 nM.

Q: For `COc1nc(NS(=O)(=O)c2csc3nc(Br)ccc23)nc(OC)c1OC(F)F` [Example 269, 6-bromo-N-[5-(difluoromethoxy)-4,6-dimethoxy-pyrimidin-2-yl]thieno[2,3-b]pyridine-3-Sulfonamide], which IC50 is on record?
A: The IC50 was 138 nM.

Q: Which IC50 does the source give for `COc1nc(NS(=O)(=O)c2csc3nc(Br)ccc23)ncc1CCC(F)F` [Example 270, 6-bromo-N-[5-(3,3-difluoropropyl)-4-methoxy-pyrimidin-2-yl]thieno[2,3-b]pyridine-3-sulfonamide] here?
A: The IC50 was 72 nM.

Q: How did the IC50 turn out when `COc1nc(NS(=O)(=O)c2csc3nc(Cl)ccc23)nc(OC)c1OC(F)F` [Example 271, 6-chloro-N-[5-(difluoromethoxy)-4,6-dimethoxy-pyrimidin-2-yl]thieno[2,3-b]pyridine-3-Sulfonamide] was run?
A: The IC50 was 290 nM.

Q: `COc1nc(NS(=O)(=O)c2c[nH]c3cc(C4COC4)ccc23)ncc1CC(F)F` [Example 272, N-[5-(2,2-difluoroethyl)-4-methoxy-pyrimidin-2-yl]-6-(oxetan-3-yl)-1h-indole-3-sulfonamide] was tested. Which IC50 did it give?
A: The IC50 was 1180 nM.

Q: How did the IC50 turn out when `COc1ccc2c(S(=O)(=O)Nc3nc(OC)c(C)c(OC)n3)c[nH]c2c1` [Example 273, N-(4,6-dimethoxy-5-methyl-pyrimidin-2-yl)-6-methoxy-1h-indole-3-sulfonamide] was run?
A: The IC50 was 128 nM.

Q: For `COc1nc(NS(=O)(=O)c2c[nH]c3cc(C(C)(C)O)ccc23)ncc1CC(F)F` [Example 274, N-[5-(2,2-difluoroethyl)-4-methoxy-pyrimidin-2-yl]-6-(1-hydroxy-1-methyl-ethyl)-1h-indole-3-sulfonamide], which IC50 is on record?
A: The IC50 was 237 nM.

Q: `COc1nc(NS(=O)(=O)c2c[nH]c3cc(Cl)ccc23)nc(OC)c1OC(F)(F)CO` [Example 275, 6-chloro-N-[5-(1,1-difluoro-2-hydroxy-ethoxy)-4,6-dimethoxy-pyrimidin-2-yl]-1H-indole-3-sulfonamide] was tested. Which IC50 did it give?
A: The IC50 was 128 nM.

Q: How did the IC50 turn out when `COc1nc(NS(=O)(=O)c2c[nH]c3c([S+](C)[O-])c(Cl)ccc23)ncc1CC(F)F` (stereo not drawn) [Example 276, 6-chloro-N-[5-(2,2-difluoroethyl)-4-methoxy-pyrimidin-2-yl]-7-methylsulfinyl-1H-indole-3-sulfonamide] was run?
A: Its IC50 is 136 nM.
